According to publication PMC7614388, “Diversification in the inositol tris/tetrakisphosphate kinase (ITPK) family: crystal structure and enzymology of the outlier AtITPK4” (Biochemical Journal, 2023):

Experiments:
[1] = biological target: T1, AtITPK4 (Arabidopsis thaliana, UniProt O80568); assay: HPLC kinase assay, substrate inhibition fit; type: biochemical; settings: 1 mM Ins(1,4,6)P3; ATP 0-5 mM; 6 mM MgCl2; 20 mM HEPES pH 7.3; 25 °C; 3 µM enzyme; substrate inhibition at high ATP
T1 construct: gene ITPK4; full-length; pOPINE, non-cleavable C-terminal 6xHis tag kept; Ni-NTA purified; HAD-like domain 1-150, ATP-grasp kinase domain from 151; no evidence of homo-oligomers

[2] = biological target: T2, AtITPK1 (Arabidopsis thaliana, UniProt Q9SBA5); assay: phosphate release assay; type: biochemical; settings: 1 mM ATP; 10 µM enzyme; no inositol phosphate
T2 construct: gene ITPK1; His tag with 3C cleavage implied
T2 sequence (Q9SBA5 1-319): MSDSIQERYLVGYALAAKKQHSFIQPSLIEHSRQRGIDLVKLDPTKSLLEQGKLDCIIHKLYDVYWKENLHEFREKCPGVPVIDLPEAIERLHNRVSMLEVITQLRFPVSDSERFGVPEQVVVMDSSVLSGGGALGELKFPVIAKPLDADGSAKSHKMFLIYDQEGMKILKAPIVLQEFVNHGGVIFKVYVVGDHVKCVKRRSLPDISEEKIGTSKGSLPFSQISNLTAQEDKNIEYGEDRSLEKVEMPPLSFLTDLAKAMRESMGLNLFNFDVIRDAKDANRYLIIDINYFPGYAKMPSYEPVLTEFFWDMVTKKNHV

T1 sequence (O80568 whole entry, the tested form may be a part): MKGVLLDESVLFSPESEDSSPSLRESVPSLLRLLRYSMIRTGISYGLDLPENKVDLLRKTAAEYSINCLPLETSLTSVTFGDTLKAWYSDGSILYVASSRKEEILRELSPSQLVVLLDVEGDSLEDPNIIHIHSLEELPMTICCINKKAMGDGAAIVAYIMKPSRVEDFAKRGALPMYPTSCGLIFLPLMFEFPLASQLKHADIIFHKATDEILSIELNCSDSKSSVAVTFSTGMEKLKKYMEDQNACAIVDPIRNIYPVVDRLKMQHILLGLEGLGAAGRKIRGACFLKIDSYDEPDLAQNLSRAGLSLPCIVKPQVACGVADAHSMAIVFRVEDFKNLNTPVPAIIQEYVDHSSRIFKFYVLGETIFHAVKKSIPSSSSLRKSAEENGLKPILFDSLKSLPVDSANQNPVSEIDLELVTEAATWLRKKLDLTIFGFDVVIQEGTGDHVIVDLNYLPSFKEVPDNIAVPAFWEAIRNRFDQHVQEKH

For `Nc1ncnc2c1ncn2[C@@H]1O[C@H](COP(=O)(O)OP(=O)(O)OP(=O)(O)O)[C@@H](O)[C@H]1O` [ATP], the Ki [1] was 3.3 mM and the phosphate release assay [2] was “AtITPK1 showed much greater phosphate release from ATP in the absence of inositol phosphate substrate”.
